Test system: subjects with PAH
Assay: Example 1 (ARIES-2) placebo-controlled Phase III trial, efficacy
Format: in vivo, human
Settings: for Change in 6MWD from baseline to Week 12, mean / Week 12 6MWD, mean: ITT population; for geometric mean percent change in plasma ET-1, increase from baseline / geometric mean plasma BNP, decrease from baseline / mean BDI change from baseline: Week 12
Experimental: The primary objective of this study was to determine the effect of ambrisentan on exercise capacity in subjects with PAH. The secondary objectives of this study were to evaluate effects of ambrisentan on other clinical measures of PAH, as well as safety and tolerability of the study drug.
Study drug was provided in round, biconvex, oral tablets that were identical in appearance. Three strengths of active study drug, containing 1 mg, 2.5 mg or 5 mg of ambrisentan, were used in this study. All study drug was packaged in blister cards. Subjects were instructed to take study drug once daily (q.d.) by mouth (p.o.) in the morning, with or without food.
The maximum study duration was up to 14 weeks from the time of initial screening procedures to the final study visit (Week 12). Screening procedures were performed a maximum of 2 weeks prior to the first dose of study drug. The maximum duration of study drug treatment was 12 weeks.
Men and women, 18 years of age or older, with idiopathic PAH, PAH associated with connective tissue disease (CTD), e.g., mixed CTD, CREST syndrome, systemic sclerosis (scleroderma), overlap syndrome or systemic lupus erythematosus, or PAH associated with anorexigen use or HIV infection were enrolled in this study. Subjects were to have a documented mean PAP≧25 mmHg, PVR>3 mmHg/L/min, and PCWP or LVEDP<15 mmHg. Subjects must have been able to walk a distance of at least 150 m but no more than 450 m during 2 consecutive 6MWTs to be eligible for inclusion in the study.
After a 2 week screening period, eligible subjects were stratified based on the underlying etiology of PAH (idiopathic or non-idiopathic) and were randomized to 1 of 3 treatment groups (placebo, 2.5 mg or 5 mg ambrisentan) in a ratio of 1:1:1. One blinded dose reduction was permitted during the 12-week treatment period in the event of study drug intolerance (e.g., 5 mg to 2.5 mg, 2.5 mg to 1 mg, placebo to placebo). Subjects received a daily dose of 1 mg ambrisentan only if they reduced from the 2.5 mg dose group. Subjects were assessed for efficacy and safety at monthly intervals.
Therefore, after a minimum treatment period of 4 weeks, subjects who met 2 or more of the following predefined early escape criteria may have been removed from the study: • (a) a decrease from baseline of at least 20% in 6MWD; • (b) an increase of 1 or more WHO functional class; • (c) worsening right ventricular failure (e.g., as indicated by increased jugular venous pressure, new or worsening hepatomegaly, ascites or peripheral edema); • (d) rapidly progressing cardiogenic, hepatic or renal failure; and/or • (e) refractory systolic hypotension (systolic blood pressure <85 mmHg).
The primary efficacy endpoint was change from baseline in 6MWD evaluated after 12 weeks of treatment compared to placebo.
The secondary efficacy endpoints included: • (a) time to clinical worsening of PAH, as defined by the time from randomization to the first occurrence of death, lung transplantation, hospitalization for PAH, atrial septostomy, study discontinuation due to addition of other PAH therapeutic agents, or study discontinuation due to 2 or more early escape criteria; • (b) change from baseline measured after 12 weeks of treatment compared to placebo in: • (i) WHO functional class; • (ii) SF-36® health survey physical functioning scale; • (iii) BDI immediately following exercise; and/or • (iv) an assessment of the safety and tolerability of the study drug; and • (c) change from baseline measured after 12 weeks of treatment compared to placebo in plasma levels of ET-1, cTnT and BNP. Safety Assessments
For the ITT population, subjects were considered as belonging to their randomized treatment group, regardless of the actual treatment received.
The primary efficacy endpoint was the change from baseline in 6MWD evaluated after 12 weeks of treatment compared to placebo, where the last observation was carried forward. […]

[1] = 2.5 mg once daily, baseline to Week 12
[2] = 5 mg once daily, baseline to Week 12

In the case of `COC(c1ccccc1)(c1ccccc1)[C@H](Oc1nc(C)cc(C)n1)C(=O)O` [ambrisentan], the “placebo-adjusted improvement in mean 6MWD at Week 12” value (2.5 mg once daily) is reported as “+32.3 m”, the “subjects at least maintaining their baseline WHO functional class at Week 12” value (2.5 mg once daily) is reported as 95.3% and the “Clinical worsening event: Atrial septostomy” value (2.5 mg once daily, 12 weeks) is reported as 0 (0.0) subjects (% of ITT population). For the same molecule, the “Clinical worsening event: Death” value (2.5 mg once daily, 12 weeks) was 2 (3.1) subjects (% of ITT population), the “Clinical worsening event: Escape criteria” value (2.5 mg once daily, 12 weeks) was 2 (3.1) subjects (% of ITT population) and the “Clinical worsening event: Hospitalization for PAH” value (2.5 mg once daily, 12 weeks) was 3 (4.7) subjects (% of ITT population). The “Clinical worsening event: Lung transplantation” value (2.5 mg once daily, 12 weeks) was 0 (0.0) subjects (% of ITT population), the “Clinical worsening event: Study withdrawal due to addition of PAH treatment” value (2.5 mg once daily, 12 weeks) was 0 (0.0) subjects (% of ITT population) and the “Clinical worsening: Total subjects with ≧1 event” value (2.5 mg once daily, 12 weeks) was 3 (4.7) subjects (% of ITT population). The “subjects who experienced an event of clinical worsening” value (2.5 mg once daily, 12 weeks) was 4.7%, the “Change in 6MWD from baseline to Week 12, mean” value (2.5 mg once daily) was “+22.2 meters” and the “Week 12 6MWD, mean” value (2.5 mg once daily) was 369.6 meters. For the same molecule, the “geometric mean percent change in plasma ET-1, increase from baseline” value (2.5 mg once daily) was 19%, the “geometric mean plasma BNP, decrease from baseline” value (2.5 mg once daily) was 29% and the “mean BDI change from baseline” value (2.5 mg once daily) was −0.20. The “Change in SF-36 Bodily pain, mean (SD)” value [1] was “+2.34 (11.87)”, the “Change in SF-36 General health, mean (SD)” value [1] was “+3.84 (6.71)” and the “Change in SF-36 Mental component summary, mean (SD)” value [1] was “+4.05 (10.30)”. The “Change in SF-36 Mental health, mean (SD)” value [1] was “+4.98 (9.70)”, the “Change in SF-36 Physical component summary, mean (SD)” value [1] was “+3.78 (7.63)” and the “Change in SF-36 Physical functioning, mean (SD)” value [1] was “+3.86 (7.14)”. The “Change in SF-36 Role-emotional, mean (SD)” value [1] was “+3.11 (12.90)”, the “Change in SF-36 Role-physical, mean (SD)” value [1] was “+5.87 (11.72)” and the “Change in SF-36 Social functioning, mean (SD)” value [1] was “+4.55 (9.72)”. The “Change in SF-36 Vitality, mean (SD)” value [1] was “+4.07 (9.12)”, the “Change in WHO functional class: +1 class” value [1] was 2 (3.1) subjects (% of ITT population) and the “Change in WHO functional class: +2 classes” value [1] was 1 (1.6) subjects (% of ITT population). The “Change in WHO functional class: no change” value [1] was 51 (79.7) subjects (% of ITT population), the “Change in WHO functional class: −1 class” value [1] was 10 (15.6) subjects (% of ITT population) and the “Change in WHO functional class: −2 classes” value [1] was 0 (0.0) subjects (% of ITT population). The “placebo-adjusted improvement in mean 6MWD at Week 12” value (5 mg once daily) was “+59.4 m”, the “subjects at least maintaining their baseline WHO functional class at Week 12” value (5 mg once daily) was 96.8% and the “Clinical worsening event: Atrial septostomy” value (5 mg once daily, 12 weeks) was 0 (0.0) subjects (% of ITT population). The “Clinical worsening event: Death” value (5 mg once daily, 12 weeks) was 0 (0.0) subjects (% of ITT population), the “Clinical worsening event: Escape criteria” value (5 mg once daily, 12 weeks) was 1 (1.6) subjects (% of ITT population) and the “Clinical worsening event: Hospitalization for PAH” value (5 mg once daily, 12 weeks) was 2 (3.2) subjects (% of ITT population). For the same molecule, the “Clinical worsening event: Lung transplantation” value (5 mg once daily, 12 weeks) was 0 (0.0) subjects (% of ITT population), the “Clinical worsening event: Study withdrawal due to addition of PAH treatment” value (5 mg once daily, 12 weeks) was 0 (0.0) subjects (% of ITT population) and the “Clinical worsening: Total subjects with ≧1 event” value (5 mg once daily, 12 weeks) was 3 (4.8) subjects (% of ITT population). For the same molecule, the “subjects hospitalized for worsening right heart failure” value (5 mg once daily, 12 weeks) was 1 subjects, the “subjects who experienced an event of clinical worsening” value (5 mg once daily, 12 weeks) was 4.8% and the “Change in 6MWD from baseline to Week 12, mean” value (5 mg once daily) was “+49.4 meters”. The “Week 12 6MWD, mean” value (5 mg once daily) was 404.7 meters, the “geometric mean percent change in plasma ET-1, increase from baseline” value (5 mg once daily) was 72% and the “geometric mean plasma BNP, decrease from baseline” value (5 mg once daily) was 30%. The “mean BDI change from baseline” value (5 mg once daily) was −0.36, the “Change in SF-36 Bodily pain, mean (SD)” value [2] was “+0.46 (9.99)” and the “Change in SF-36 General health, mean (SD)” value [2] was “+4.95 (8.05)”. The “Change in SF-36 Mental component summary, mean (SD)” value [2] was “+6.28 (11.64)”, the “Change in SF-36 Mental health, mean (SD)” value [2] was “+4.03 (10.13)” and the “Change in SF-36 Physical component summary, mean (SD)” value [2] was “+2.97 (7.79)”. The “Change in SF-36 Physical functioning, mean (SD)” value [2] was “+2.96 (6.81)” and the “Change in SF-36 Role-emotional, mean (SD)” value [2] was “+8.15 (14.43)”.

From patent US9504685B2, “Method for treating a pulmonary hypertension condition” (Gilead Sciences, Inc., priority 2006, dated 2016)
